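Abbreviation: GI50, concentration required for 50% inhibition of growth. TGI: total growth inhibition.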
Columns and labels:
Experiment in all cases: NCI-60 cell line screen, 384-well format
A498 renal = system: A498 renal
BT-549 breast = system: BT-549 breast
HOP-62 NSCLC = system: HOP-62 NSCLC
HT29 colon = system: HT29 colon
K-562 leukemia = system: K-562 leukemia
NCI-H522 lung = system: NCI-H522 lung
SF-295 CNS = system: SF-295 CNS
SF-539 CNS = system: SF-539 CNS
SK-MEL-28 melanoma = system: SK-MEL-28 melanoma
SK-OV-3 ovarian = system: SK-OV-3 ovarian
SN12C renal = system: SN12C renal
T-47D breast = system: T-47D breast
TK-10 renal = system: TK-10 renal

| SMILES | GI50 (A498 renal) [nM] | TGI (A498 renal) [nM] | GI50 (BT-549 breast) [nM] | TGI (BT-549 breast) [nM] | GI50 (HOP-62 NSCLC) [nM] | TGI (HOP-62 NSCLC) [nM] | GI50 (HT29 colon) [nM] | TGI (HT29 colon) [nM] | GI50 (K-562 leukemia) [nM] | TGI (K-562 leukemia) [nM] | GI50 (NCI-H522 lung) [nM] | TGI (NCI-H522 lung) [nM] | GI50 (SF-295 CNS) [nM] | TGI (SF-295 CNS) [nM] | GI50 (SF-539 CNS) [nM] | TGI (SF-539 CNS) [nM] | GI50 (SK-MEL-28 melanoma) [nM] | TGI (SK-MEL-28 melanoma) [nM] | GI50 (SK-OV-3 ovarian) [nM] | TGI (SK-OV-3 ovarian) [nM] | further results |
| --- | --- | --- | --- | --- | --- | --- | --- | --- | --- | --- | --- | --- | --- | --- | --- | --- | --- | --- | --- | --- | --- |
| CNCc1ccccc1-c1csc([C@@H](C)Nc2nc(C)nc3cc(OC)c(OC)cc23)c1 | 1030 | 2190 | 1250 | 2500 | 1480 | 2800 | 1560 | 2910 | 64 | 723 | 1160 | 2390 | 1700 | 3070 | 1140 | 2360 | 1510 | 2840 | 1310 | 2580 | GI50 (SN12C renal): 1030 nM; TGI (SN12C renal): 2200 nM; GI50 (T-47D breast): 1130 nM; TGI (T-47D breast): 2340 nM; GI50 (TK-10 renal): 1450 nM; TGI (TK-10 renal): 2770 nM |
| Cc1cc(Nc2ccc(NC(=O)c3ccc(Nc4ccnc5ccccc45)cc3)cc2)nc(N)n1 | 1500 | 2890 | 490 | 1120 | 695 | 1840 | 319 | 815 | 324 | 921 | 217 | 410 | 3160 | 8990 | 552 | 1020 | 987 | 2270 | 917 | 2250 | GI50 (SN12C renal): 1220 nM; TGI (SN12C renal): 2480 nM; GI50 (T-47D breast): 192 nM; TGI (T-47D breast): 334 nM; GI50 (TK-10 renal): 5630 nM; TGI (TK-10 renal): 17500 nM |

Source: PubChem BioAssay (NCI)
